Assay results: patent US20090144853A1, “Control of Gene Expression in Plants” (UNIVERSITY OF DURHAM, priority 2005, published 2009)

Tests used:
LRI-1 promoter = experiment: GUS histochemical staining of LRI-1 promoter trap seedlings grown with hormones or hormone signalling inhibitors; format: in vivo, Arabidopsis thaliana
Procedure: (§1) The expression of the GUS promoter trap was analysed over a developmental time course in uninfected Arabidopsis seedlings that had been grown aseptically on a synthetic growth medium. Prior to analysis, seeds of the transgenic line were surface sterilised by treatment with 70% (v/v) ethanol for 3 minutes and 10% (v/v) commercial bleach for 20 minutes. The seeds were then washed with water and grown on half-strength Murashige and Skoog medium (½MS), supplemented with 10 g/l sucrose. The seedlings were grown in the presence of continuous light at 25° C. Tissue localisation of the GUS enzyme activity was determined at intervals after germination by staining for up to 12 hours at 37° C. in 1 mM 5-bromo-4-chloro-3-indoyl-β-D-glucuronic acid (X-gluc), according to the method of Jefferson et al (1987, EMBO J. 6, 3901-3907), wherein the method was modified by the use of buffer comprising 100 mM sodium phosphate (pH 7.0), 10 mM EDTA, 0.1% (v/v) Triton X-100 and 1 mM potassium ferricyanide to inhibit diffusion of the reaction intermediate. This solution was known as GUS buffer. Excess chlorophyll was removed by soaking the stained tissues in 70% (v/v) ethanol.
(§2) In order to investigate the regulation of the LRI-1 promoter activity, seeds that were homozygous for the LRI-1 gene fusion were germinated aseptically on ½MS10 medium in the presence or absence of hormones. At 9 dpg, the seedlings were subsequently transferred to ½MS10 medium containing either hormones or inhibitors of hormone signalling. Hormone treatments used for the purposes of this invention included, but were not limited to: 0.25, 2.5 or 10 μM 1-naphthaleneacetic acid (NAA, a synthetic auxin); 0.25, 2.5 or 10 μM kinetin (a synthetic cytokinin); 10 or 100 μM silver nitrate (an inhibitor of ethylene signalling); 10 or 100 μM 1-aminocyclopropane-1-carboxylic acid (ACC, a precursor of ethylene); 10 or 100 μM naphthylphthalamic acid (NPA) or 10 μM triiodobenozoic acid (TIBA). NPA and TIBA are inhibitors of polar auxin transport. After growth on medium in the presence or absence of hormones, the seedlings were transferred to a solution of GUS buffer and analysed for GUS activity (indicated by the presence of a blue precipitate).

AtPRB2 promoter = experiment: GUS activity of 2.47 kb AtPRB2 promoter fragment::GUS transgenic seedlings treated with exogenous auxin; format: in vivo, Arabidopsis thaliana; conditions: 9 dpg on ½MS10, then 2.5 μM for a further 1, 3 or 5 days; except at the root tips
Description: To confirm that the 5′ flanking sequence upstream of the left T-DNA was responsible for the observed GUS activity in line LRI-1, the sequence was cloned and fused to each of the gusA and the GFP reporter genes respectively. The technique of PCR was used to amplify a 1.47 kb genomic fragment immediately upstream of the left T-DNA border. This 1.47 kb fragment was cloned upstream of the respective reporter genes and subsequently introduced into Arabidopsis thaliana plants by the dipping method of Agrobacterium tumefaciens-mediated transformation (Clough and Bent 1998 Plant J. 16, 735-743). In order to determine whether the promoter activity of the cloned sequence pLRI-1 was similar to the promoter region upstream of gene AtPRB2, a 2.47 kb fragment immediately upstream of the gene was cloned. In addition, shorter fragments which were 1 kb, 0.5 kb and 0.2 kb upstream of AtPRB2 were cloned and fused to the gusA reporter gene in the binary vector pΔGUSCIRCE (Casson et al, 2002 Plant Cell 14, 1705-1721), before introduction into plants by Agrobacterium-mediated transformation.
Using a similar approach, the activity of the 2.47 kb AtPRB2 gene fragment was determined in transgenic Arabidopsis lines. […]

[1] = system: Arabidopsis thaliana seedlings; experiment: Root development of LRI-1 seedlings grown with hormones or hormone signalling inhibitors; format: in vivo
Procedure: as §1, §2

[2] = 9 days without compound, then 10 μM for a further 2 days
[3] = grown on 2.5 μM or 10 μM for up to 9 days
[4] = transferred to compound after growth on hormone-free medium, higher concentrations

NC1(C(=O)O)CC1 [ACC, 1-aminocyclopropane-1-carboxylic acid]
level of GUS activity (LRI-1 promoter; germinated and grown in presence of 10 μM for up to 9 dpg): reduction in the level of GUS activity | GUS activity (LRI-1 promoter; grown in presence of 100 μM, stronger expression at the base of lateral roots): induction of GUS activity in the hypocotyl

O=C(O)Cc1cccc2ccccc12 [NAA, 1-naphthaleneacetic acid]
GUS activity in root (LRI-1 promoter; 9 dpg on ½MS10, then transfer to 0.25, 2.5 or 10 μM NAA for 1, 3 or 5 days, except at the root tip): strong GUS activity throughout the root | GUS activity in aerial parts (LRI-1 promoter; after transfer at 9 dpg, two lower concentrations of NAA tested): No GUS activity was detected | GUS activity (LRI-1 promoter; seedlings germinated on ½MS10 in presence of NAA (0.25, 2.5 or 10 μM), most prominent at 10 μM): strong throughout the root of the seedling | LRI-1::GUS expression (LRI-1 promoter; seedlings treated with 2.5 μM exogenous auxin): induction of LRI-1::GUS expression throughout the Arabidopsis root | AtPRB2::GUS activity (AtPRB2 promoter): strong induction of AtPRB2::GUS activity throughout the root | adventitious root development ([1]; after transfer at 9 dpg, 2.5 μM NAA): developed adventitious roots on the hypocotyl | adventitious root development ([1]; grown for 9 dpg in presence of auxin, roots GUS-positive): adventitious roots developed from the shortened hypocotyl | root elongation ([1]; seedlings germinated on ½MS10 in presence of NAA, most prominent at 10 μM): dramatic reduction in root elongation

O=C(O)c1cc(I)cc(I)c1I [TIBA, triiodobenozoic acid]
existing GUS activity at previously formed lateral roots (LRI-1 promoter; [2]): remained unaffected | GUS activity (LRI-1 promoter; grown 5 dpg in presence of 10 μM, some seedlings, at sites where lateral roots would normally emerge): localised but low level GUS activity | new lateral root formation [1, 2]: inhibition of new lateral root formation | lateral root development ([1]; germinated and grown 5 dpg in presence of 10 μM): No lateral root development was observed

c1coc(CNc2ncnc3[nH]cnc23)c1 [kinetin]
GUS activity (LRI-1 promoter; [3]): detected as normal | GUS activity (LRI-1 promoter; [4]): detectable as normal | lateral root formation [1, 3]: no lateral root formation was observed | lateral root formation [1, 4]: reduction in lateral root formation

O=[N+]([O-])[O-].[Ag+] [silver nitrate]
GUS activity associated with the LRI-1 promoter (LRI-1 promoter; germination and growth for 3, 5 or 9 days in presence of 10 μM): reduction in GUS activity
